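Protocol summary: plate cells (96-well), add compound at 5 concentrations, incubate 48 h, interpolate endpoints linearly. Abbreviation: GI50, concentration required for 50% inhibition of growth. TGI is the concentration that stops growth completely.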
What was measured:
Assay in all cases: DTP human tumour cell line panel, 48 h
[1] = tested on: HCT-116 colon
[2] = tested on: KM12 colon
[3] = tested on: SF-295 CNS
[4] = tested on: MALME-3M melanoma
[5] = tested on: OVCAR-8 ovarian
[6] = tested on: MOLT-4 leukemia
[7] = tested on: UO-31 renal
[8] = tested on: TK-10 renal
[9] = tested on: PC-3 prostate
[10] = tested on: T-47D breast

SMILES	TGI [1] [µM]	TGI [2] [µM]	TGI [3] [µM]	TGI [4] [µM]	TGI [5] [µM]	TGI [6] [µM]	TGI [7] [µM]	TGI [8] [µM]	GI50 [1] [µM]	GI50 [9] [µM]	TGI [9] [µM]	GI50 [2] [µM]	GI50 [3] [µM]	GI50 [4] [µM]	GI50 [5] [µM]	GI50 [6] [µM]	GI50 [7] [µM]	GI50 [8] [µM]	GI50 [10] [µM]	TGI [10] [µM]
CCOC(=O)/N=c1/nc(N(C)C)ss1	> 100	> 100	> 100	> 100	> 100	> 100	> 100	> 100	–	–	–	–	–	–	–	–	–	–	–	–
NCP(=O)(O)OCC(=O)O	> 100	> 100	> 100	> 100	> 100	> 100	> 100	> 100	–	–	–	–	–	–	–	–	–	–	–	–
NS(=O)(=O)c1ccc(NC(=O)COC(=O)c2cccc3c(=O)c4ccccc4[nH]c23)cc1	> 74.9	> 85.5	52.6	50.5	65.8	> 47.2	> 87	77.1	–	–	–	–	–	–	–	–	–	–	–	–
COc1ccc(/C=N/N=C(\[O-])c2ccncc2)cc1F.COc1ccc(/C=N\N=C(/[O-])c2ccncc2)cc1F.[Cu+2]	> 100	39	26.5	> 100	27.5	> 100	> 100	48	27	16.8	35.1	16.2	11.2	25.9	13.8	26	64.4	19.9	–	–
COc1c(N2CCN(Cn3c(O)c(N=NC(=O)c4ccncc4)c4cc(F)ccc43)C(C)C2)c(F)cc2c(=O)c(C(=O)O)cn(C3CC3)c12 (stereo not drawn)	15	> 50	> 50	–	> 50	> 50	> 50	37.2	8.24	> 50	> 50	> 50	23.9	–	34.8	39.1	> 50	12.5	–	–
COC(=O)C1CC(C(=O)OC)c2nc3cc(C)c(C)cc3nc21 (stereo not drawn)	–	> 100	> 100	> 100	> 100	> 100	> 100	> 100	–	–	–	–	–	–	–	–	–	–	–	–
C#CCN(Cc1nc2cc(C(F)(F)F)ccc2nc1-c1ccccc1)c1ccc(F)c(F)c1	> 100	–	> 100	–	> 100	> 100	> 100	> 100	38	37.6	> 100	–	39.7	–	31.6	30.3	36.1	> 100	63.5	> 100
Cc1ccc2c(c1)C(=O)c1c-2n(CCCN=[N+]=[N-])c(=O)c2cc([N+](=O)[O-])ccc12	> 100	> 100	> 100	–	> 100	70.4	> 100	> 100	20.5	33.4	> 100	83	> 100	–	> 100	17.8	69	99.8	20.7	93.6
Cn1cc(NC(=O)c2cc(NC(=O)CCCCCCC(=O)Nc3cc(C(=O)Nc4cc(C(=O)NCCC(=N)N)n(C)c4)n(C)c3)cn2C)cc1C(=O)NCCC(=N)N	41.6	13.3	> 100	12.1	43.2	–	> 100	72.9	–	–	–	–	–	–	–	–	–	–	–	–
COc1ccc2c(c1)OCCC1=C2SCC2(C)CCN=C12 (stereo not drawn)	> 100	> 100	> 100	–	> 100	> 100	–	> 100	–	–	–	–	–	–	–	–	–	–	–	–
CC1=C(C(=O)Nc2ccccc2)C(c2ccc(C(C)C)cc2)C(C(=O)Nc2ccccc2)=C(C)N1	27	77.8	> 100	30.2	> 66.3	57.5	46.6	> 100	–	–	–	–	–	–	–	–	–	–	–	–
Nc1ccc(C(=O)N/C(=C\c2cccc([N+](=O)[O-])c2)c2nc3c4c(ccc3[nH]2)C(=O)c2ccccc2C4=O)cc1	> 100	–	> 100	> 100	> 100	> 100	7.64	77	–	–	–	–	–	–	–	–	–	–	–	–
COc1cc(-c2nn(-c3ccc(NC(=O)c4cc(Cl)cc(Cl)c4)cc3)cc2-c2ccncc2)ccc1Cl	> 100	> 100	–	–	> 100	> 100	> 100	> 100	16.3	42	> 100	3.27	–	–	> 100	4.83	6.86	> 100	> 100	> 100
Cn1ccnc1C[N-]Cc1nccn1C.O=[N+]([O-])[O-].O=[N+]([O-])[O-].[Cu+2]	> 100	> 100	> 100	–	> 100	> 100	–	> 100	> 100	–	–	> 100	> 100	–	> 100	> 100	–	> 100	–	–
C1C[OH+]CC[OH+]CC[OH+]CC[OH+]CC[OH+]CC[OH+]1.[Cl-].[Nb+5]	> 100	> 100	> 100	> 100	> 100	> 100	> 100	> 100	> 100	–	–	> 100	> 100	> 100	> 100	> 100	68.6	> 100	–	–
CCOC(=O)/C(C#N)=C/Nc1ccc(-c2nc3ccccc3[nH]2)cc1	> 100	44.1	76.8	–	> 100	> 100	> 100	54.2	> 100	29.8	> 100	16.1	27.4	–	> 100	35.1	21.1	16.8	33.9	> 100
C=CCCC(=O)N1C=CC(=O)[C@H](O)[C@@H]1/C=C/c1ccccc1	> 32.5	> 32.5	> 32.5	> 32.5	> 32.5	> 32.5	> 32.5	> 32.5	6.24	–	–	16	10.7	9.61	16	15.6	4.25	21.5	15.5	> 32.5
CC(C)(C)OC(=O)N1N=NC2C3OC(CC3=O)C21 (stereo not drawn)	> 100	–	–	> 100	> 100	> 100	> 100	> 100	–	–	–	–	–	–	–	–	–	–	–	–
